Experimental findings from paper PMC6213216, “AbeTx1 Is a Novel Sea Anemone Toxin with a Dual Mechanism of Action on Shaker-Type K^+ Channels Activation” (Marine Drugs, 2018) are described below.

Positions of bridges follow the written chain, without caps; N, C: chain ends. Residues, ends and D or L forms follow the SMILES beside them.

Common to all, as to type: cell-based
The target of series [1] is T1, rKV1.6 (Rattus norvegicus, UniProt P17659).
T1 construct: expressed in transfected cells; host or cells: Xenopus laevis oocytes injected with cRNA
As to the kind of experiment: Two-electrode voltage-clamp on Xenopus laevis oocytes expressing rKV1.6. The settings on record: for IC50: concentration-response curve, percentage blocked current fitted with Hill equation, TEVC oocytes, 0 mV from −90 mV, read-out: KV1.6 IC50. On the procedure: (§1) The pharmacological effect of AbeTx1 was analyzed by heterologous expression of 12 voltage-gated potassium channels isoforms (rKV1.1, Genbank NM173095; rKV1.2, Genbank NM012970; hKV1.3, Genbank L23499; rKV1.4,Genbank NM012971; rKV1.5, Genbank NM012972; rKV1.6, Genbank NM575671; Shaker IR from Drosophila melanogaster, Genbank CG12348; rKV2.1, Genbank NM013186; hKV3.1, Genbank NM004976; rKV4.2, Genbank NM031730; rKV4.3, Genbank NM031739 and hERG, Genbank NM000238), and three voltage-gated sodium channel subtypes (rNaV1.2, Genbank NM012647; rNaV1.4, Genbank M26643 and BgNaV1.1, from Blattella germanica) (r, rat; h, human) in oocytes from Xenopus laevis. The linearized plasmids were transcribed using a T7 or SP6 mMESSAGE-mMACHINE transcription kit (Life Technologies, Austin, TX, USA). Oocytes were injected with 20–50 nL of cRNA at a concentration of 1 ng·nL^−1 using a microinjector (Drummond Scientific, Broomall, PA, USA). The oocytes were stored for 1–3 days at 16 °C until sufficient expression of voltage-gated ion channels was achieved. Oocytes were maintained in an ND96 solution (in mM: 96 NaCl, 2 KCl, 1.8 CaCl2, 2 MgCl2 and 5 HEPES; pH 7.4), supplemented with 50 µg·mL^−1 gentamicin sulfate.
(§2) Two-electrode voltage-clamp recordings were performed at room temperature (18–22 °C) using a Geneclamp 500 amplifier (Molecular Devices, Sunnyvale, CA, USA) controlled by a pClamp data acquisition system (Axon Instruments, Union City, CA, USA). ND96 was used as bath solution. Whole-cell currents from oocytes were recorded 1–3 days after injection. Voltage and current electrodes were filled with KCl (3 M). The resistance of both electrodes was kept between 0.8–1.0 MΩ. The elicited currents were filtered at 0.5 or 2 kHz using a four-pole low-pass Bessel filter. Leak subtraction was performed using a -P/4 protocol. KV1.1-KV1.6 and Shaker IR currents were evoked by 500 ms depolarization to 0 mV, followed by a 500 ms pulse to −50 mV, from a holding potential of −90 mV. KV2.1, KV3.1, KV4.2, and KV4.3 currents were elicited by 500 ms pulses to + 20 mV from a holding potential of −90 mV. Current traces of hERG channels were elicited by applying a +40 mV pulse for 2.5 s, followed by a step to −120 mV for 2.5 s. Sodium current traces were evoked by 100 ms depolarization steps from a holding potential of −90 mV to 0 mV. Concentration-response curves were constructed by adding different AbeTx1 or analogs concentrations directly to the bath solution. The percentage of the KV blockade was plotted against the logarithm of the applied concentrations and fitted with the Hill Equation (1):y = 100/[1 + (IC50/[toxin]) × h](1) where y is the amplitude of the toxin-induced effect, IC50 is the toxin concentration at half-maximal efficacy, [toxin] is the toxin concentration, and h is the Hill coefficient. To investigate the effects on the voltage dependence of activation, current traces were evoked by 10 mV depolarization steps from a holding potential of −90 mV. Data were normalized to the maximal K^+ current amplitude, plotted against prepulse potential, and fitted using the Boltzmann Equation (2):IK/Imax = [1 + (exp(Vg − V)/k] − 1(2) where Imax represents maximal potassium current (IK), Vg is the voltage corresponding to half-maximal current, and k is the slope factor. Each experimental data represents mean ± standard error of at least three oocytes (n ≥ 3) from different frogs. Effect of the toxin on current-voltage experiments was statistically examined by comparing the control condition and the presence of toxin using the Student’s paired t-test. P-values < 0.05 are considered to be statistically significant. Data were analyzed using Clampfit 10.4 (Molecular Devices, Sunnyvale, CA, USA) and Origin v8.1 software (Origin Lab, Northampton, MA, USA), under the institutional license of the University of São Paulo.

Series [2] has as its target T2, rNaV1.2 (Rattus norvegicus, UniProt P04775).
T2 construct: expressed in transfected cells; host or cells: Xenopus laevis oocytes injected with cRNA
As to the kind of experiment: Two-electrode voltage-clamp on Xenopus laevis oocytes expressing rNaV1.2. The conditions noted are these: 3 µM AbeTx1; TEVC, X. laevis oocytes, 100 ms depolarization from −90 mV to 0 mV. The method, then: as §1, with “Oocytes were injected with 20–50 nL of cRNA at a concentration of 1 ng·nL^−1 using a microinjector (Drummond Scientific, Broomall, PA, USA). The oocytes were stored for 1–3 days at 16 °C until sufficient expression of voltage-gated ion channels was achieved. Oocytes were maintained in an ND96 solution (in mM: 96 NaCl, 2 KCl, 1.8 CaCl2, 2 MgCl2 and 5 HEPES; pH 7.4), supplemented with 50 µg·mL^−1 gentamicin sulfate.” left out
(§3) Two-electrode voltage-clamp recordings were performed at room temperature (18–22 °C) using a Geneclamp 500 amplifier (Molecular Devices, Sunnyvale, CA, USA) controlled by a pClamp data acquisition system (Axon Instruments, Union City, CA, USA). […] Whole-cell currents from oocytes were recorded 1–3 days after injection. […] Data were analyzed using Clampfit 10.4 (Molecular Devices, Sunnyvale, CA, USA) and Origin v8.1 software (Origin Lab, Northampton, MA, USA), under the institutional license of the University of São Paulo.

Series [3] has as its target T3, rKV1.1 (Rattus norvegicus, UniProt P10499).
T3 construct: expressed in transfected cells; host or cells: Xenopus laevis oocytes injected with cRNA
The series can be described thus: Two-electrode voltage-clamp on Xenopus laevis oocytes expressing rKV1.1. The settings on record: for IC50: concentration-response curve, percentage blocked current fitted with Hill equation, TEVC oocytes, 0 mV from −90 mV, read-out: KV1.1 IC50. On the procedure:
as §1, §2

The target in series [4] is T4, hERG (Homo sapiens, UniProt Q12809).
T4 construct: expressed in transfected cells; host or cells: Xenopus laevis oocytes injected with cRNA
The series can be described thus: Two-electrode voltage-clamp on Xenopus laevis oocytes expressing hERG (KV11.1). The conditions noted are these: 3 µM AbeTx1; TEVC, X. laevis oocytes, +40 mV pulse 2.5 s then −120 mV 2.5 s. On the procedure:
as §1, with “Oocytes were injected with 20–50 nL of cRNA at a concentration of 1 ng·nL^−1 using a microinjector (Drummond Scientific, Broomall, PA, USA). The oocytes were stored for 1–3 days at 16 °C until sufficient expression of voltage-gated ion channels was achieved. Oocytes were maintained in an ND96 solution (in mM: 96 NaCl, 2 KCl, 1.8 CaCl2, 2 MgCl2 and 5 HEPES; pH 7.4), supplemented with 50 µg·mL^−1 gentamicin sulfate.” left out
as §3

For series [5], the target named is T5, rKV1.2 (Rattus norvegicus, UniProt P63142).
T5 construct: expressed in transfected cells; host or cells: Xenopus laevis oocytes injected with cRNA
The series can be described thus: Two-electrode voltage-clamp on Xenopus laevis oocytes expressing rKV1.2. The conditions noted are these: 3 µM AbeTx1; TEVC, X. laevis oocytes, 500 ms depolarization to 0 mV from holding −90 mV; mean ± SE, n ≥ 3; SEM; read-out: inhibition of KV1.2 current. The method, then:
as §1, with “Oocytes were injected with 20–50 nL of cRNA at a concentration of 1 ng·nL^−1 using a microinjector (Drummond Scientific, Broomall, PA, USA). The oocytes were stored for 1–3 days at 16 °C until sufficient expression of voltage-gated ion channels was achieved. Oocytes were maintained in an ND96 solution (in mM: 96 NaCl, 2 KCl, 1.8 CaCl2, 2 MgCl2 and 5 HEPES; pH 7.4), supplemented with 50 µg·mL^−1 gentamicin sulfate.” left out
as §3

The target in series [6] is T6, Shaker IR (Drosophila melanogaster, UniProt P08510, DEL6-46).
T6 construct: expressed in transfected cells; host or cells: Xenopus laevis oocytes injected with cRNA
As to the kind of experiment: Two-electrode voltage-clamp on Xenopus laevis oocytes expressing Shaker IR. The conditions noted are these: 3 µM AbeTx1; TEVC, X. laevis oocytes, 500 ms depolarization to 0 mV from holding −90 mV; mean ± SE, n ≥ 3; SEM; read-out: inhibition of Shaker IR current. The method, then: as §1, with “Oocytes were injected with 20–50 nL of cRNA at a concentration of 1 ng·nL^−1 using a microinjector (Drummond Scientific, Broomall, PA, USA). The oocytes were stored for 1–3 days at 16 °C until sufficient expression of voltage-gated ion channels was achieved. Oocytes were maintained in an ND96 solution (in mM: 96 NaCl, 2 KCl, 1.8 CaCl2, 2 MgCl2 and 5 HEPES; pH 7.4), supplemented with 50 µg·mL^−1 gentamicin sulfate.” left out
as §3

In series [7] the target is T7, hKV1.3 (Homo sapiens, UniProt P22001).
T7 construct: expressed in transfected cells; host or cells: Xenopus laevis oocytes injected with cRNA
As to the kind of experiment: Two-electrode voltage-clamp on Xenopus laevis oocytes expressing hKV1.3. The conditions noted are these: 3 µM AbeTx1; TEVC, X. laevis oocytes, 500 ms depolarization to 0 mV from holding −90 mV; mean ± SE, n ≥ 3; SEM; read-out: inhibition of KV1.3 current. On the procedure: as §1, with “Oocytes were injected with 20–50 nL of cRNA at a concentration of 1 ng·nL^−1 using a microinjector (Drummond Scientific, Broomall, PA, USA). The oocytes were stored for 1–3 days at 16 °C until sufficient expression of voltage-gated ion channels was achieved. Oocytes were maintained in an ND96 solution (in mM: 96 NaCl, 2 KCl, 1.8 CaCl2, 2 MgCl2 and 5 HEPES; pH 7.4), supplemented with 50 µg·mL^−1 gentamicin sulfate.” left out
as §3

Series [8] deals with T8, rNaV1.4 (Rattus norvegicus, UniProt P15390).
T8 construct: expressed in transfected cells; host or cells: Xenopus laevis oocytes injected with cRNA
As to the kind of experiment: Two-electrode voltage-clamp on Xenopus laevis oocytes expressing rNaV1.4. The settings on record: 3 µM AbeTx1; TEVC, X. laevis oocytes, 100 ms depolarization from −90 mV to 0 mV. On the procedure: as §1, with “Oocytes were injected with 20–50 nL of cRNA at a concentration of 1 ng·nL^−1 using a microinjector (Drummond Scientific, Broomall, PA, USA). The oocytes were stored for 1–3 days at 16 °C until sufficient expression of voltage-gated ion channels was achieved. Oocytes were maintained in an ND96 solution (in mM: 96 NaCl, 2 KCl, 1.8 CaCl2, 2 MgCl2 and 5 HEPES; pH 7.4), supplemented with 50 µg·mL^−1 gentamicin sulfate.” left out
as §3

T1 sequence (P17659 whole entry): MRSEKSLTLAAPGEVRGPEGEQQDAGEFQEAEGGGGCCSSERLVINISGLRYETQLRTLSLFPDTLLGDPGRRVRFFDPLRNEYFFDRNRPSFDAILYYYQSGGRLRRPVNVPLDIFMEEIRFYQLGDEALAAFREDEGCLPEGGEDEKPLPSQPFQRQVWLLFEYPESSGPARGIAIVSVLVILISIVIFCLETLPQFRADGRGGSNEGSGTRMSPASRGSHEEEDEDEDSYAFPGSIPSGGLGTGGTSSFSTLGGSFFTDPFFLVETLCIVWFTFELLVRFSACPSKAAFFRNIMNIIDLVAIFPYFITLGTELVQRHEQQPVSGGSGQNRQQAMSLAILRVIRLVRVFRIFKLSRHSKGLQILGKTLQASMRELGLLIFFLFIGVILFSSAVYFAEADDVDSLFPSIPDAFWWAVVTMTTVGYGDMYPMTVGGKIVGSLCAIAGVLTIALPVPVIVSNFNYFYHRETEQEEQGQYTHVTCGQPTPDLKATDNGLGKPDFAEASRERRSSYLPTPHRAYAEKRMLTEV
T3 sequence (P10499 whole entry): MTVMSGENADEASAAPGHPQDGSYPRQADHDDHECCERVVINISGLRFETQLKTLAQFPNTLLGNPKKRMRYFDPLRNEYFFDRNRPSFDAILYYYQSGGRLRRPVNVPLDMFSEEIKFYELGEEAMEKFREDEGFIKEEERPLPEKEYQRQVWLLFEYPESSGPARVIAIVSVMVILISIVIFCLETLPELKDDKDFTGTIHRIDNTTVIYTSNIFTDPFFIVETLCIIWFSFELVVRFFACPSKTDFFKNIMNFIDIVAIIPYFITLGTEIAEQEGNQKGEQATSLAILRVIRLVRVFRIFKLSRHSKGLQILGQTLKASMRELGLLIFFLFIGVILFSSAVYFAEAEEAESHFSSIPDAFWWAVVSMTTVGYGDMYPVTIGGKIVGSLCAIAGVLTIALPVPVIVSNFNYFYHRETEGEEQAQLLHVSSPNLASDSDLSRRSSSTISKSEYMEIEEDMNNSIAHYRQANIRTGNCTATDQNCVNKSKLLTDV
T2 sequence (P04775 whole entry): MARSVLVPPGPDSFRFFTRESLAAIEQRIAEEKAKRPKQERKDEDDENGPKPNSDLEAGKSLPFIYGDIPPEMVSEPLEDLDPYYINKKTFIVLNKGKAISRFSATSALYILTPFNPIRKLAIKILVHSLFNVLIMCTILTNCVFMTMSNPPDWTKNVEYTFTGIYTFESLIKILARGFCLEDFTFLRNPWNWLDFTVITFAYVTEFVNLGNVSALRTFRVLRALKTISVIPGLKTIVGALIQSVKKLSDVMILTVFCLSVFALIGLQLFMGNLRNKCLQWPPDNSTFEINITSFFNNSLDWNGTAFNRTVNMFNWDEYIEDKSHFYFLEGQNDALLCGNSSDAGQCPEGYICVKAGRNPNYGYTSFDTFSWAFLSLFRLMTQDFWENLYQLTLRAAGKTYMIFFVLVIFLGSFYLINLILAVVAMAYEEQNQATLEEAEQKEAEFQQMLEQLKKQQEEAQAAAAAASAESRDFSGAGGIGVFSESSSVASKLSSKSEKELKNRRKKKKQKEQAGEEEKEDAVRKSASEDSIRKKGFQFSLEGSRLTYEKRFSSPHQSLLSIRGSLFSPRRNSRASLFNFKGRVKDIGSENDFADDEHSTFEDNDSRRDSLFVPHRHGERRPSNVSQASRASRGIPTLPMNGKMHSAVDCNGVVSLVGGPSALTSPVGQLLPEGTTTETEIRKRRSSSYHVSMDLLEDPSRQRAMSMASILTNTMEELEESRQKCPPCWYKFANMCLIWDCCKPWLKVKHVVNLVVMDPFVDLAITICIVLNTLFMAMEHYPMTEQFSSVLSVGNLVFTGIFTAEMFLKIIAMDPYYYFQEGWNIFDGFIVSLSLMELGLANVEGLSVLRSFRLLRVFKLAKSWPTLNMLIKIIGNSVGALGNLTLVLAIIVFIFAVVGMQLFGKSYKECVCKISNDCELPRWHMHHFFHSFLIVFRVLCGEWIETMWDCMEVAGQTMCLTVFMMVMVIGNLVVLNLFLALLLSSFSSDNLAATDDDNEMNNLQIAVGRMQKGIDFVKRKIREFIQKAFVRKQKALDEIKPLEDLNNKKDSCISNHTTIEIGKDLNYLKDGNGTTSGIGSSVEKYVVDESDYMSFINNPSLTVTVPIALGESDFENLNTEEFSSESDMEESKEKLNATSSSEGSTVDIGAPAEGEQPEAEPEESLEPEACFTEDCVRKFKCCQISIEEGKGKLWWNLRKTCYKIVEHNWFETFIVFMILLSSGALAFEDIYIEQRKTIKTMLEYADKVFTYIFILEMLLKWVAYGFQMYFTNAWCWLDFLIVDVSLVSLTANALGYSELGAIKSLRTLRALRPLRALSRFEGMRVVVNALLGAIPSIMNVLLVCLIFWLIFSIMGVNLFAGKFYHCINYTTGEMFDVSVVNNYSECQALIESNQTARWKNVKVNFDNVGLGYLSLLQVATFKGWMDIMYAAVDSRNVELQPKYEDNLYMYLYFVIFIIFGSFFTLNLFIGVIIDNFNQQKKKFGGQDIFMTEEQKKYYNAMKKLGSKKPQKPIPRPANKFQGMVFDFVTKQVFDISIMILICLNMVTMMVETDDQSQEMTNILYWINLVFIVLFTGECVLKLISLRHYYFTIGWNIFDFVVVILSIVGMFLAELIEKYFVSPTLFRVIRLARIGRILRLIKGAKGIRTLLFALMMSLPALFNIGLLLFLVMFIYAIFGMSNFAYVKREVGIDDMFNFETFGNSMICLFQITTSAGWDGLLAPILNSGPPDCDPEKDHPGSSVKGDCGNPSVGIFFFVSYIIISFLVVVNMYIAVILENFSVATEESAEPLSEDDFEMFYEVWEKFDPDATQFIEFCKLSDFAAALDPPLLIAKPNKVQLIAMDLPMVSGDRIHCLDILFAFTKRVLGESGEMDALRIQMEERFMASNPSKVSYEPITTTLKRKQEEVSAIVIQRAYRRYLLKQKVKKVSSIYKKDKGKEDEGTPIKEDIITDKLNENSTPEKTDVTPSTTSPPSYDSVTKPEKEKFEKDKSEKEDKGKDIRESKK
T6 sequence (P08510 with tags, fused parts or gaps DEL6-46): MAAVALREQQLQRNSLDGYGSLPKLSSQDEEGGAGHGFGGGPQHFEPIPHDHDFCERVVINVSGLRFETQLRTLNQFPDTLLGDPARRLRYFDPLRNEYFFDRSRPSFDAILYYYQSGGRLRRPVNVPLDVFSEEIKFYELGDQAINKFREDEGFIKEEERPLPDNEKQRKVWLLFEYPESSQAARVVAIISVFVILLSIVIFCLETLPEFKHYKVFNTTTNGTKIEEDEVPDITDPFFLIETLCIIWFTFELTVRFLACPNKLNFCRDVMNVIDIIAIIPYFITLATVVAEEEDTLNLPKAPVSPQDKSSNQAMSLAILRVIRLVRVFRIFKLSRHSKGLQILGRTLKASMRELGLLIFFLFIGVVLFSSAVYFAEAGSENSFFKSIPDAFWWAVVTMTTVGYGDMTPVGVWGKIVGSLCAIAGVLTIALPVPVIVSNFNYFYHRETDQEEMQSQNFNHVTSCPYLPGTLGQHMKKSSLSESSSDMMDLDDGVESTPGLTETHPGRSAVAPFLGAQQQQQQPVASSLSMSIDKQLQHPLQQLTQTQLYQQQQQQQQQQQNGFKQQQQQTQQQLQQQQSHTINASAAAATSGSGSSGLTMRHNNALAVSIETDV
T5 sequence (P63142 whole entry): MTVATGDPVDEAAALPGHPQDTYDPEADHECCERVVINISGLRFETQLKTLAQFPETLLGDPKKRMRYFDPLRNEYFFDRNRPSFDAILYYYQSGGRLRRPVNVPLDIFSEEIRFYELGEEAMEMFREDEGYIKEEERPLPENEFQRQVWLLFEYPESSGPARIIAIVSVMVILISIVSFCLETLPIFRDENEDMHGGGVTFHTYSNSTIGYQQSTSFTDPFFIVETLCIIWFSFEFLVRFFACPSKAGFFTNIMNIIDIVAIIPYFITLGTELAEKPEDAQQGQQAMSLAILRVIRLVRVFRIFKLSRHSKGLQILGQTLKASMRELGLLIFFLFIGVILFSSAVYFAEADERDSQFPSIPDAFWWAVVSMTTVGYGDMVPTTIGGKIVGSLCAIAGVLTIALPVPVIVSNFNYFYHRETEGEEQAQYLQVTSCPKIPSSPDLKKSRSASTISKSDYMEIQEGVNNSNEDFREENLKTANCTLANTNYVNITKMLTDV
T7 sequence (P22001 whole entry): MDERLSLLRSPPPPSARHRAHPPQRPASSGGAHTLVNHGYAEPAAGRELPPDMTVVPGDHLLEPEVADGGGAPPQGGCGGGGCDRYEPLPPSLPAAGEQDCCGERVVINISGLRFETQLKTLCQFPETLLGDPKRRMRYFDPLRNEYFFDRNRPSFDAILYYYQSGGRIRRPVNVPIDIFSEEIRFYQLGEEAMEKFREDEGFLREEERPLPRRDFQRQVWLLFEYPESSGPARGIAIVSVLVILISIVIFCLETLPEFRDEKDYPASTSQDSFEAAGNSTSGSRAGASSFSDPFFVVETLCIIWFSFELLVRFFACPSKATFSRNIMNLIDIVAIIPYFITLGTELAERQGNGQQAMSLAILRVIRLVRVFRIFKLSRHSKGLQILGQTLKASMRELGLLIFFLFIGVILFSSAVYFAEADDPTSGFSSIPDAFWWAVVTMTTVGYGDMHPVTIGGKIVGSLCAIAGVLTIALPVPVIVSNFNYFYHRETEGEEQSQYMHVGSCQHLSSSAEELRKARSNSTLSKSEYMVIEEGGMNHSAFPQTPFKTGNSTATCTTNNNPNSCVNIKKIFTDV

On to `C[C@@H](O)[C@@H]1NC(=O)[C@H](CCCCN)NC(=O)[C@@H](NC(=O)[C@@H](N)CCCNC(=N)N)CSSC[C@@H](C(=O)NCC(=O)O)NC(=O)[C@H](CC(N)=O)NC(=O)[C@@H]2CCCN2C(=O)[C@H](CCCCN)NC(=O)[C@@H]2CCCN2C(=O)[C@H](CCCNC(=N)N)NC(=O)[C@@H]2CSSC[C@H](NC1=O)C(=O)N[C@@H](CO)C(=O)N[C@@H](CCCCN)C(=O)NCC(=O)N[C@@H](CCCNC(=N)N)C(=O)N2` [AbeTx1] (H-RCKTCSKGRCRPKPNCG-OH; disulfide 2-16, 5-10), for which the inhibition at 3 µM in series [1] (3 µM AbeTx1, TEVC, X. laevis oocytes, 500 ms depolarization to 0 mV from holding −90 mV, mean ± SE, n ≥ 3, SEM, read-out: inhibition of KV1.6 current) was found to be 95 ± 2.44%; in series [3] (3 µM AbeTx1, TEVC, X. laevis oocytes, 500 ms depolarization to 0 mV from holding −90 mV, mean ± SE, n ≥ 3, SEM, read-out: inhibition of KV1.1 current) it was 83.7 ± 1.45%; in series [5] it was 95.3 ± 1.45%; in series [6], 15.5 ± 1.8%; in series [7] it was 19.7 ± 2.18%. For the same compound, the “reduction of KV1.6 current, toxin added on top of TEA” value in series [1] (AbeTx1 120 nM applied to bath already containing 920 μM TEA) was 55.33 ± 2.47%. The half-maximal inhibitory concentration (IC50) turned out to be 116 ± 31.4 nM in series [1] (mean ± SE, n ≥ 3, SEM) and 672 ± 150 nM in series [3] (mean ± SE, n ≥ 3, SEM). Moreover, in series [2], the “activity on NaV1.2” value is listed as “no activity”. For the same compound, the “reduction of KV1.1 current, toxin added on top of TEA” value in series [3] (AbeTx1 600 nM applied to bath already containing 200 μM TEA, n = 6) came to 71.20 ± 2.18%. Also, the “reduction of the KV1.1 K+ current at +70 mV” value in series [3] (AbeTx1 600 nM, test potential +70 mV from holding −90 mV, n = 6) worked out at 11.07 ± 1.12%. Further, in series [3] (AbeTx1 600 nM, test potential −20 mV from holding −90 mV, n = 6), the “reduction of the KV1.1 K+ current at −20 mV” value is recorded as 53.47 ± 5.07%. Besides, in series [4], the “effect on KV11.1 (hERG) current” value is recorded as “not affected”. Besides, the “activity on NaV1.4” value in series [8] was “no activity”.
On to `C[C@@H]1NC(=O)CNC(=O)[C@H](CCCCN)NC(=O)[C@H](CO)NC(=O)[C@@H]2CSSC[C@H](NC1=O)C(=O)N[C@@H](CCCNC(=N)N)C(=O)N1CCC[C@H]1C(=O)N[C@@H](CCCCN)C(=O)N1CCC[C@H]1C(=O)N[C@@H](CC(N)=O)C(=O)N[C@H](C(=O)NCC(=O)O)CSSC[C@H](NC(=O)[C@@H](N)CCCNC(=N)N)C(=O)N[C@@H](CCCCN)C(=O)N[C@@H]([C@@H](C)O)C(=O)N2` [Arg9Ala] (H-RCKTCSKGACRPKPNCG-OH; disulfide 2-16, 5-10), for which the IC50 is 2440 nM in series [1] (mean ± SE, n ≥ 3, SEM) and 8500 nM in series [3] (mean ± SE, n ≥ 3, SEM).
